Marks after values point to notes of the source that are not given here.
How the values were obtained:
Assay type in all cases: physicochemical
[1] = Assay/impurities of AE14B trial batch #1 (Examples 17 and 19); settings: API as dispensed
[2] = AE14B trial batch #3 assay/impurities during process (Examples 22 and 23)
[3] = Forced degradation of API, drug product emulsion and placebo (Examples 30 and 32)
Protocol: In this example, a forced degradation study was performed on the API, drug product emulsion, and a placebo. Only w/w % impurities are presented.
In this example, an additional forced degradation study was performed. Harsh conditions for oxidation (H2O2 concentration increased from 1% to 3%, exposure increased from 30 min to 2 hr) and conditions for photolytic degradation (exposure decreased from 24 hr to 40 min) were used in an additional forced degradation study.

[4] = Chemical analysis of AE10C Trial #1 in-process samples and finished product (Example 36); settings: Dronabinol AE10C Formulation, Trial #1 samples
[5] = Oxidation 1% H2O2 0.5 hr, 1st study
[6] = Oxidation 3% H2O2 2 hr, 2nd study

CCCCCc1cc(O)c2c(c1)OC(C)(C)[C@@H]1CCC(C)=C[C@@H]21 [API]
Impurity CBN [1]: 0.18 % Area | THC % Area [1]: 99.84 % Area | Total impurities [1]: 0.2 % Area | THC Assay ([1]; calculated using 48.4% based on the certificate of analysis): 96.63* % LC | % Area (THC from Imp) ([2]; API Sample): 99.6 % Area | % Area of Impurities: CBN ([2]; API Sample): 0.18 % Area | % Area of Impurities: RRT 0.46 ([2]; API Sample): <0.1 % Area | % Area of Impurities: RRT 0.93 ([2]; API Sample): 0.18 % Area | % Area of Impurities: Total ([2]; API Sample): 0.4 % Area | % w/w of Impurities: CBN ([2]; API Sample): 0.15 % w/w | % w/w of Impurities: RRT 0.46 ([2]; API Sample): <0.1 % w/w | % w/w of Impurities: RRT 0.93 ([2]; API Sample): 0.15 % w/w | % w/w of Impurities: Total ([2]; API Sample): 0.3 % w/w | API % w/w ([2]; API Sample): 38.29 % w/w | Assay % LC ([2]; API Sample): 79.12 % LC | Conc. ([2]; API Sample): 38.29 % w/w | Impurity CBN ([2]; API Sample): 0.18 % Area | Impurity RRT 0.93 ([2]; API Sample): 0.18 % Area | Osmolarity (mOsm/L) ([2]; API Sample): 228 mOsm/L | Total impurities ([2]; API Sample): 0.4 % Area | pH ([2]; API Sample): 6.60 | Osmolarity ([2]; API Sample column): 228 mOsm/L | pH ([2]; API Sample column): 6.60 | total impurities excluding late eluting excipient impurities (RRT 1.22 and later) ([2]; Batch #3): 0.4 % area | API % w/w ([2]; Repeated API Sample): 44.2 % w/w | Assay % LC ([2]; Repeated API Sample): 91.29 % LC | % Area ([3]; Acid 24 hr, 1st study): 96.0 % Area | % w/w Impurities CBN ([3]; Acid 24 hr, 1st study): 1.54 % w/w | % w/w Impurities RRT 0.30 ([3]; Acid 24 hr, 1st study): 0.08 % w/w | % w/w Impurities RRT 0.40 ([3]; Acid 24 hr, 1st study): 0.71 % w/w | % w/w Impurities RRT 0.46 ([3]; Acid 24 hr, 1st study): 0.22 % w/w | % w/w Impurities RRT 0.49 ([3]; Acid 24 hr, 1st study): 0.37 % w/w | % w/w Impurities RRT 0.56 ([3]; Acid 24 hr, 1st study): 0.18 % w/w | % w/w Impurities RRT 0.62 ([3]; Acid 24 hr, 1st study): 0.37 % w/w | % w/w Impurities Total ([3]; Acid 24 hr, 1st study): 3.5 % w/w | Assay % LC ([3]; Acid 24 hr, 1st study): 83.6 % LC | % Area ([3]; Base 24 hr, 1st study): 95.3 % Area | % w/w Impurities CBN ([3]; Base 24 hr, 1st study): 1.19 % w/w | % w/w Impurities RRT 0.30 ([3]; Base 24 hr, 1st study): 0.13 % w/w | % w/w Impurities RRT 0.40 ([3]; Base 24 hr, 1st study): 1.72 % w/w | % w/w Impurities RRT 0.46 ([3]; Base 24 hr, 1st study): 0.30 % w/w | % w/w Impurities RRT 0.56 ([3]; Base 24 hr, 1st study): 0.42 % w/w | % w/w Impurities RRT 0.62 ([3]; Base 24 hr, 1st study): 0.31 % w/w | % w/w Impurities Total ([3]; Base 24 hr, 1st study): 4.1 % w/w | Assay % LC ([3]; Base 24 hr, 1st study): 82.9 % LC | % Area ([3]; Control, 1st study): 97.5 % Area | % w/w Impurities CBD ([3]; Control, 1st study): 0.52 % w/w | % w/w Impurities CBN ([3]; Control, 1st study): 1.41 % w/w | % w/w Impurities RRT 0.46 ([3]; Control, 1st study): 0.28 % w/w | % w/w Impurities Total ([3]; Control, 1st study): 2.2 % w/w | Assay % LC ([3]; Control, 1st study): 85.8 % LC | % Area ([3]; Control, 2nd study): 97.4 % Area | % w/w Impurities CBD ([3]; Control, 2nd study): 0.58 % w/w | % w/w Impurities CBN ([3]; Control, 2nd study): 1.41 % w/w | % w/w Impurities RRT 0.46 ([3]; Control, 2nd study): 0.26 % w/w | % w/w Impurities Total ([3]; Control, 2nd study): 2.3 % w/w | Assay % LC ([3]; Control, 2nd study): 85.8 % LC | % Area [3, 5]: 97.5 % Area | % w/w Impurities CBN [3, 5]: 1.27 % w/w | % w/w Impurities RRT 0.46 [3, 5]: 0.25 % w/w | % w/w Impurities RRT 0.62 [3, 5]: 0.49 % w/w | % w/w Impurities Total [3, 5]: 2.0 % w/w | Assay % LC [3, 5]: 78.6 % LC | % Area [3, 6]: 97.0 % Area | % w/w Impurities CBD [3, 6]: 0.62 % w/w | % w/w Impurities CBN [3, 6]: 0.79 % w/w | % w/w Impurities RRT 0.46 [3, 6]: 0.29 % w/w | % w/w Impurities RRT 0.56 [3, 6]: 0.20 % w/w | % w/w Impurities RRT 0.93 [3, 6]: 0.65 % w/w | % w/w Impurities Total [3, 6]: 2.6 % w/w | Assay % LC [3, 6]: 83.7 % LC | % Area ([3]; Photolytic 40 min, 2nd study): 79.1 % Area | % w/w Impurities CBD ([3]; Photolytic 40 min, 2nd study): 8.20 % w/w | % w/w Impurities CBN ([3]; Photolytic 40 min, 2nd study): 1.00 % w/w | % w/w Impurities RRT 0.30 ([3]; Photolytic 40 min, 2nd study): 0.07 % w/w | % w/w Impurities RRT 0.44 ([3]; Photolytic 40 min, 2nd study): 0.68 % w/w | % w/w Impurities RRT 0.46 ([3]; Photolytic 40 min, 2nd study): 1.35 % w/w | % w/w Impurities RRT 0.52 ([3]; Photolytic 40 min, 2nd study): 1.56 % w/w | % w/w Impurities RRT 0.56 ([3]; Photolytic 40 min, 2nd study): 0.17 % w/w | % w/w Impurities RRT 0.70 ([3]; Photolytic 40 min, 2nd study): 0.62 % w/w | % w/w Impurities RRT 0.82 ([3]; Photolytic 40 min, 2nd study): 0.22 % w/w | % w/w Impurities RRT 1.35 ([3]; Photolytic 40 min, 2nd study): 0.21 % w/w | % w/w Impurities RRT 1.40 ([3]; Photolytic 40 min, 2nd study): 0.21 % w/w | % w/w Impurities RRT 1.45 ([3]; Photolytic 40 min, 2nd study): 0.52 % w/w | % w/w Impurities RRT 1.48 ([3]; Photolytic 40 min, 2nd study): 0.40 % w/w | % w/w Impurities Total ([3]; Photolytic 40 min, 2nd study): 15.2 % w/w | Assay % LC ([3]; Photolytic 40 min, 2nd study): 57.5 % LC | % Area ([3]; Photolytic 24 hr, 1st study): 11.3 % Area | % w/w Impurities CBN ([3]; Photolytic 24 hr, 1st study): 6.75 % w/w | % w/w Impurities RRT 0.39 ([3]; Photolytic 24 hr, 1st study): 0.79 % w/w | % w/w Impurities RRT 0.40 ([3]; Photolytic 24 hr, 1st study): 0.66 % w/w | % w/w Impurities RRT 0.46 ([3]; Photolytic 24 hr, 1st study): 4.05 % w/w | % w/w Impurities RRT 0.49 ([3]; Photolytic 24 hr, 1st study): 2.55 % w/w | % w/w Impurities RRT 0.62 ([3]; Photolytic 24 hr, 1st study): 1.45 % w/w | % w/w Impurities RRT 0.75 ([3]; Photolytic 24 hr, 1st study): 0.25 % w/w | % w/w Impurities RRT 0.82 ([3]; Photolytic 24 hr, 1st study): 0.49 % w/w | % w/w Impurities RRT 1.19 ([3]; Photolytic 24 hr, 1st study): 0.83 % w/w | % w/w Impurities RRT 1.45 ([3]; Photolytic 24 hr, 1st study): 0.07 % w/w | % w/w Impurities Total ([3]; Photolytic 24 hr, 1st study): 17.9 % w/w | Assay % LC ([3]; Photolytic 24 hr, 1st study): 2.3 % LC | Impurity Change CBD ([3]; Stress condition Acid): 2 (2: Increase in API) | Impurity Change RRT 0.40 ([3]; Stress condition Acid): 2 (2: Increase in API) | Impurity Change RRT 0.46 ([3]; Stress condition Acid): — (Blank cell: no effect) | Impurity Change RRT 0.62 ([3]; Stress condition Acid): 2 (2: Increase in API) | Impurity Change RRT 0.93 ([3]; Stress condition Acid): — (Blank cell: no effect) | Impurity Change CBD ([3]; Stress condition Base): 2 (2: Increase in API) | Impurity Change CBN ([3]; Stress condition Base): — (Blank cell: no effect) | Impurity Change RRT 0.40 ([3]; Stress condition Base): 2 (2: Increase in API) | Impurity Change RRT 0.46 ([3]; Stress condition Base): — (Blank cell: no effect) | Impurity Change RRT 0.62 ([3]; Stress condition Base): 2 (2: Increase in API) | Impurity Change RRT 0.93 ([3]; Stress condition Base): — (Blank cell: no effect) | Impurity Change CBD ([3]; Stress condition Oxidation): 2 (2: Increase in API) | Impurity Change CBN ([3]; Stress condition Oxidation): — (Blank cell: no effect) | Impurity Change RRT 0.40 ([3]; Stress condition Oxidation): — (Blank cell: no effect) | Impurity Change RRT 0.46 ([3]; Stress condition Oxidation): — (Blank cell: no effect) | Impurity Change RRT 0.62 ([3]; Stress condition Oxidation): 2 (2: Increase in API) | Impurity Change RRT 0.93 ([3]; Stress condition Oxidation): — (Blank cell: no effect) | Impurity Change CBD ([3]; Stress condition Photolytic): 2 (2: Increase in API) | Impurity Change CBN ([3]; Stress condition Photolytic): 2 (2: Increase in API) | Impurity Change RRT 0.40 ([3]; Stress condition Photolytic): 2 (2: Increase in API) | Impurity Change RRT 0.46 ([3]; Stress condition Photolytic): 2 (2: Increase in API) | Impurity Change RRT 0.62 ([3]; Stress condition Photolytic): 2 (2: Increase in API) | Impurity Change CBD ([3]; Stress condition Thermal): 2 (2: Increase in API) | Impurity Change CBN ([3]; Stress condition Thermal): 2 (2: Increase in API) | Impurity Change RRT 0.46 ([3]; Stress condition Thermal): 2 (2: Increase in API) | % Area ([3]; Thermal 24 hr, 1st study): 77.5 % Area | % w/w Impurities CBD ([3]; Thermal 24 hr, 1st study): 2.43 % w/w | % w/w Impurities CBN ([3]; Thermal 24 hr, 1st study): 9.03 % w/w | % w/w Impurities RRT 0.30 ([3]; Thermal 24 hr, 1st study): 0.15 % w/w | % w/w Impurities RRT 0.44 ([3]; Thermal 24 hr, 1st study): 0.47 % w/w | % w/w Impurities RRT 0.46 ([3]; Thermal 24 hr, 1st study): 0.56 % w/w | % w/w Impurities RRT 0.52 ([3]; Thermal 24 hr, 1st study): 0.40 % w/w | % w/w Impurities RRT 0.56 ([3]; Thermal 24 hr, 1st study): 0.22 % w/w | % w/w Impurities RRT 0.70 ([3]; Thermal 24 hr, 1st study): 0.29 % w/w | % w/w Impurities RRT 1.19 ([3]; Thermal 24 hr, 1st study): 0.54 % w/w | % w/w Impurities RRT 1.27 ([3]; Thermal 24 hr, 1st study): 0.26 % w/w | % w/w Impurities RRT 1.40 ([3]; Thermal 24 hr, 1st study): 0.50 % w/w | % w/w Impurities RRT 1.45 ([3]; Thermal 24 hr, 1st study): 0.34 % w/w | % w/w Impurities RRT 1.48 ([3]; Thermal 24 hr, 1st study): 0.14 % w/w | % w/w Impurities Total ([3]; Thermal 24 hr, 1st study): 15.3 % w/w | Assay % LC ([3]; Thermal 24 hr, 1st study): 52.8 % LC | Assay decrease ([3]; second study, photolytic degradation, 40 min light exposure): ~30% | Assay % LC [4]: 87.2 % LC | Impurity (% Area) CBD [4]: 0.62 % Area | Impurity (% Area) RRT 0.46 [4]: 0.19 % Area | Impurity (% Area) RRT 0.70 [4]: 0.52 % Area | Impurity (% Area) Total [4]: 1.3 % Area | Impurity (% w/w) CBN [4]: 0.55 % w/w | Impurity (% w/w) RRT 0.46 [4]: 0.17 % w/w | Impurity (% w/w) RRT 0.93 [4]: 0.46 % w/w | Impurity (% w/w) Total [4]: 1.2 % w/w
